Measurements as given in patent US10294202B2, “Pyrrolidinones as herbicides” (FMC Corporation, priority 2013, dated 2019).

Key:
ragweed = test: Test C pre-/postemergence herbicide test; assay type: in vivo, Ambrosia elatior
In short: (§1)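 Plants grown and held in a greenhouse for 13 to 15 days post-spray, then rated 0–100 by visual comparison with controls. Pre treatments targeted seeds in loam and sand; post treatments targeted 1- to 4-leaf plants in peat-based potting medium.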

lambsquarters = test: Test C pre-/postemergence herbicide test; assay type: in vivo, Chenopodium album
In short: as §1

sedge, umbrella = test: Test B flooded paddy test; assay type: in vivo, Cyperus difformis; settings: 500 g ai/ha, Flood; scale of 0 to 100 where 0 is no effect and 100 is complete control
In short: (§2)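 Paddy-water application at a 3 cm flood, young plants having two leaves. Water level maintained; greenhouse, 13–15 days; visual 0–100 control rating.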

rice = test: Test B flooded paddy test; assay type: in vivo, Oryza sativa; settings: 500 g ai/ha, Flood; scale of 0 to 100 where 0 is no effect and 100 is complete control
In short: as §2

johnsongrass = test: Test C pre-/postemergence herbicide test; assay type: in vivo, Sorghum halepense
In short: as §1

pigweed = test: Test C pre-/postemergence herbicide test; assay type: in vivo, Amaranthus retroflexus
In short: as §1

wheat (winter wheat) = test: Test C pre-/postemergence herbicide test; assay type: in vivo, Triticum aestivum
In short: as §1

corn = test: Test A pre-/postemergence herbicide test; assay type: in vivo, Zea mays; settings: Postemergence
In short: (§3)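 Approximately 10 days after treatment in the greenhouse, plants were compared with untreated controls and given a 0–100 visual injury rating. Applications: preemergence directed soil spray; postemergence on 2–10 cm plants at the one- to two-leaf stage.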

oat, wild = test: Test C pre-/postemergence herbicide test; assay type: in vivo, Avena fatua; settings: Postemergence
In short: as §1

crabgrass, large = test: Test C pre-/postemergence herbicide test; assay type: in vivo, Digitaria sanguinalis
In short: as §1

giant foxtail = test: Test A pre-/postemergence herbicide test; assay type: in vivo, Setaria faberii
In short: as §3

ducksalad = test: Test B flooded paddy test; assay type: in vivo, Heteranthera limosa; settings: 500 g ai/ha, Flood; scale of 0 to 100 where 0 is no effect and 100 is complete control
In short: as §2

[1] = Postemergence, 31 g ai/ha, scale 0 to 100 (0 no effect, 100 complete control)
[2] = Postemergence, 62 g ai/ha, scale 0 (no effect) to 100 (complete control)
[3] = Postemergence, 125 g ai/ha, scale 0 to 100 (0 no effect, 100 complete control)
[4] = Postemergence, 250 g ai/ha, scale 0 to 100 (0 no effect, 100 complete control)
[5] = Preemergence, 62 g ai/ha, scale 0 to 100 (0 no effect, 100 complete control)
[6] = Preemergence, 125 g ai/ha, scale 0 to 100 (0 no effect, 100 complete control)
[7] = Preemergence, 31 g ai/ha, scale 0 to 100, 0 is no effect and 100 is complete control
[8] = 125 g ai/ha, visual rating on 0 to 100 scale (0 no effect, 100 complete control), approx. 10 days
[9] = 500 g ai/ha, 0 to 100 scale (0 no effect, 100 complete control)
[10] = 31 g ai/ha, scale 0 to 100 (0 no effect, 100 complete control)
[11] = 62 g ai/ha, scale 0 (no effect) to 100 (complete control)
[12] = 125 g ai/ha, scale 0 to 100 (0 no effect, 100 complete control)
[13] = 250 g ai/ha, scale 0 to 100 (0 no effect, 100 complete control)
[14] = Postemergence, 125 g ai/ha, visual rating on 0 to 100 scale (0 no effect, 100 complete control), approx. 10 days
[15] = Postemergence, 500 g ai/ha, 0 to 100 scale (0 no effect, 100 complete control)
[16] = Preemergence, 125 g ai/ha, 0 to 100 scale where 0 is no effect and 100 is complete control
[17] = Preemergence, 500 g ai/ha, visual rating on 0 to 100 scale (0 no effect, 100 complete control)
[18] = Preemergence, 125 g ai/ha, scale 0 to 100

CN1CC(c2ccc(C(F)(F)F)cc2)C(C(=O)Nc2cccc(F)c2F)C1=O (centres unmarked) [Compound 306]
Plant response rating, Ragweed (ragweed; [1]): 60
Plant response rating, Ragweed (ragweed; [2]): 55
Plant response rating, Ragweed (ragweed; [3]): 80
Plant response rating, Ragweed (ragweed; [4]): 85
Ragweed plant response rating (ragweed; [5]): 75
Plant response rating, Ragweed (ragweed; [6]): 75
Plant response rating (scale of 0 to 100), Ragweed (ragweed; Preemergence, 250 g ai/ha): 80
Plant response rating, Lambsquarters (lambsquarters; [1]): 60
Plant response rating, Lambsquarters (lambsquarters; [2]): 70
Plant response rating, Lambsquarters (lambsquarters; [3]): 90
Plant response rating, Lambsquarters (lambsquarters; [4]): 75
Lambsquarters plant response rating (lambsquarters; [7]): 55
Lambsquarters plant response rating (lambsquarters; [5]): 65
Plant response rating, Lambsquarters (lambsquarters; [6]): 75
Plant response rating (scale of 0 to 100), Lambsquarters (lambsquarters; Preemergence, 250 g ai/ha): 80
Plant response rating, Sedge, Umbrella (sedge, umbrella): 0
Plant response rating, Rice (rice): 50
Plant response rating, Johnsongrass (johnsongrass; [1]): 0
Plant response rating, Johnsongrass (johnsongrass; [2]): 0
Plant response rating, Johnsongrass (johnsongrass; [3]): 0
Plant response rating, Johnsongrass (johnsongrass; [4]): 0
Johnsongrass plant response rating (johnsongrass; [7]): 35
Johnsongrass plant response rating (johnsongrass; [5]): 55
Plant response rating, Johnsongrass (johnsongrass; [6]): 80
Plant response rating (scale of 0 to 100), Johnsongrass (johnsongrass; Preemergence, 250 g ai/ha): 85
Plant response rating, Pigweed (pigweed; [1]): 75
Plant response rating, Pigweed (pigweed; [2]): 85
Plant response rating, Pigweed (pigweed; [3]): 85
Plant response rating, Pigweed (pigweed; [4]): 90
Pigweed plant response rating (pigweed; [7]): 80
Pigweed plant response rating (pigweed; [5]): 85
Plant response rating, Pigweed (pigweed; [6]): 85
Plant response rating (scale of 0 to 100), Pigweed (pigweed; Preemergence, 250 g ai/ha): 90
Plant response rating, Wheat (wheat (winter wheat); [1]): 0
Plant response rating, Wheat (wheat (winter wheat); [2]): 0
Plant response rating, Wheat (wheat (winter wheat); [3]): 0
Plant response rating, Wheat (wheat (winter wheat); [4]): 0
Wheat plant response rating (wheat (winter wheat); [5]): 50
Plant response rating (scale of 0 to 100), Wheat (wheat (winter wheat); Preemergence, 250 g ai/ha): 85
Plant response rating, Corn (corn; [8]): 50
Plant response rating, Corn (corn; [9]): 70
Plant response rating, Oat, Wild (oat, wild; [10]): 0
Plant response rating, Oat, Wild (oat, wild; [11]): 0
Plant response rating, Oat, Wild (oat, wild; [12]): 0
Plant response rating, Oat, Wild (oat, wild; [13]): 5
Plant response rating, Crabgrass, Large (crabgrass, large; [1]): 10
Plant response rating, Crabgrass, Large (crabgrass, large; [2]): 45
Plant response rating, Crabgrass, Large (crabgrass, large; [3]): 75
Plant response rating, Crabgrass, Large (crabgrass, large; [4]): 85
Crabgrass, Large plant response rating (crabgrass, large; [7]): 90
Crabgrass, Large plant response rating (crabgrass, large; [5]): 95
Plant response rating, Crabgrass, Large (crabgrass, large; [6]): 95
Plant response rating (scale of 0 to 100), Crabgrass, Large (crabgrass, large; Preemergence, 250 g ai/ha): 98
Plant response rating, Foxtail, Giant (giant foxtail; [14]): 80
Plant response rating, Foxtail, Giant (giant foxtail; [15]): 80
Plant response rating, Foxtail, Giant (giant foxtail; [16]): 90
Foxtail, Giant plant response rating (giant foxtail; [17]): 90
Plant response rating, Ducksalad (ducksalad): 100

O=C1NCC(c2cccc(Br)c2)C1C(=O)Nc1ccc(F)c(F)c1F (centres unmarked) [Compound 310]
Plant response rating, Ragweed (ragweed; [1]): 10
Plant response rating, Ragweed (ragweed; [2]): 10
Plant response rating, Ragweed (ragweed; [3]): 20
Plant response rating, Ragweed (ragweed; [4]): 60
Ragweed plant response rating (ragweed; [5]): 0
Plant response rating, Ragweed (ragweed; [18]): 5
Plant response rating (scale of 0 to 100), Ragweed (ragweed; Preemergence, 250 g ai/ha): 35
Plant response rating, Lambsquarters (lambsquarters; [1]): 25
Plant response rating, Lambsquarters (lambsquarters; [2]): 65
Plant response rating, Lambsquarters (lambsquarters; [3]): 65
Plant response rating, Lambsquarters (lambsquarters; [4]): 70
Lambsquarters plant response rating (lambsquarters; [7]): 0
Lambsquarters plant response rating (lambsquarters; [5]): 5
Plant response rating, Lambsquarters (lambsquarters; [18]): 55
Plant response rating (scale of 0 to 100), Lambsquarters (lambsquarters; Preemergence, 250 g ai/ha): 80
Plant response rating, Sedge, Umbrella (sedge, umbrella): 0
Plant response rating, Rice (rice): 0
Plant response rating, Johnsongrass (johnsongrass; [1]): 0
Plant response rating, Johnsongrass (johnsongrass; [2]): 0
Plant response rating, Johnsongrass (johnsongrass; [3]): 0
Plant response rating, Johnsongrass (johnsongrass; [4]): 5
Johnsongrass plant response rating (johnsongrass; [7]): 0
Johnsongrass plant response rating (johnsongrass; [5]): 0
Plant response rating, Johnsongrass (johnsongrass; [18]): 45
Plant response rating (scale of 0 to 100), Johnsongrass (johnsongrass; Preemergence, 250 g ai/ha): 75
Plant response rating, Pigweed (pigweed; [1]): 35
Plant response rating, Pigweed (pigweed; [2]): 40
Plant response rating, Pigweed (pigweed; [3]): 60
Plant response rating, Pigweed (pigweed; [4]): 70
Pigweed plant response rating (pigweed; [7]): 0
Pigweed plant response rating (pigweed; [5]): 5
Plant response rating, Pigweed (pigweed; [18]): 20
Plant response rating (scale of 0 to 100), Pigweed (pigweed; Preemergence, 250 g ai/ha): 20
Plant response rating, Wheat (wheat (winter wheat); [1]): 0
Plant response rating, Wheat (wheat (winter wheat); [2]): 0
Plant response rating, Wheat (wheat (winter wheat); [3]): 0
Plant response rating, Wheat (wheat (winter wheat); [4]): 0
Wheat plant response rating (wheat (winter wheat); [5]): 0
Plant response rating, Wheat (wheat (winter wheat); [18]): 0
Plant response rating (scale of 0 to 100), Wheat (wheat (winter wheat); Preemergence, 250 g ai/ha): 10
Plant response rating, Corn (corn; [8]): 20
Plant response rating, Corn (corn; [9]): 50
Plant response rating, Oat, Wild (oat, wild; [10]): 0
Plant response rating, Oat, Wild (oat, wild; [11]): 0
Plant response rating, Oat, Wild (oat, wild; [12]): 0
Plant response rating, Oat, Wild (oat, wild; [13]): 0
Plant response rating, Crabgrass, Large (crabgrass, large; [1]): 0
Plant response rating, Crabgrass, Large (crabgrass, large; [2]): 10
Plant response rating, Crabgrass, Large (crabgrass, large; [3]): 70
Plant response rating, Crabgrass, Large (crabgrass, large; [4]): 70
Crabgrass, Large plant response rating (crabgrass, large; [7]): 90
Crabgrass, Large plant response rating (crabgrass, large; [5]): 90
Plant response rating, Crabgrass, Large (crabgrass, large; [18]): 95
Plant response rating (scale of 0 to 100), Crabgrass, Large (crabgrass, large; Preemergence, 250 g ai/ha): 95
Plant response rating, Foxtail, Giant (giant foxtail; [14]): 90
Plant response rating, Foxtail, Giant (giant foxtail; [15]): 90
Plant response rating, Foxtail, Giant (giant foxtail; [16]): 90
Foxtail, Giant plant response rating (giant foxtail; [17]): 90
Plant response rating, Ducksalad (ducksalad): 100

O=C1NCC(c2cccc(OC(F)F)c2)C1C(=O)Nc1ccccc1F (centres unmarked) [Compound 323]
Plant response rating, Ragweed (ragweed; [1]): 0
Plant response rating, Ragweed (ragweed; [2]): 0
Plant response rating, Ragweed (ragweed; [3]): 15
Plant response rating, Ragweed (ragweed; [4]): 20
Ragweed plant response rating (ragweed; [5]): 10
Plant response rating, Ragweed (ragweed; [18]): 40
Plant response rating, Lambsquarters (lambsquarters; [1]): 10
Plant response rating, Lambsquarters (lambsquarters; [2]): 10
Plant response rating, Lambsquarters (lambsquarters; [3]): 65
Plant response rating, Lambsquarters (lambsquarters; [4]): 65
Lambsquarters plant response rating (lambsquarters; [7]): 40
Lambsquarters plant response rating (lambsquarters; [5]): 50
Plant response rating, Lambsquarters (lambsquarters; [18]): 75
Plant response rating (scale of 0 to 100), Lambsquarters (lambsquarters; Preemergence, 250 g ai/ha): 95
Plant response rating, Sedge, Umbrella (sedge, umbrella): 0
Plant response rating, Rice (rice): 20
Plant response rating, Johnsongrass (johnsongrass; [1]): 0
Plant response rating, Johnsongrass (johnsongrass; [2]): 0
Plant response rating, Johnsongrass (johnsongrass; [3]): 0
Plant response rating, Johnsongrass (johnsongrass; [4]): 10
Johnsongrass plant response rating (johnsongrass; [7]): 0
Johnsongrass plant response rating (johnsongrass; [5]): 0
Plant response rating, Johnsongrass (johnsongrass; [18]): 45
Plant response rating (scale of 0 to 100), Johnsongrass (johnsongrass; Preemergence, 250 g ai/ha): 60
Plant response rating, Pigweed (pigweed; [1]): 0
Plant response rating, Pigweed (pigweed; [2]): 5
Plant response rating, Pigweed (pigweed; [3]): 25
Plant response rating, Pigweed (pigweed; [4]): 25
Pigweed plant response rating (pigweed; [7]): 35
Pigweed plant response rating (pigweed; [5]): 35
Plant response rating, Pigweed (pigweed; [18]): 55
Plant response rating, Wheat (wheat (winter wheat); [1]): 0
Plant response rating, Wheat (wheat (winter wheat); [2]): 0
Plant response rating, Wheat (wheat (winter wheat); [3]): 0
Plant response rating, Wheat (wheat (winter wheat); [4]): 0
Wheat plant response rating (wheat (winter wheat); [5]): 30
Plant response rating, Wheat (wheat (winter wheat); [18]): 40
Plant response rating, Corn (corn; [8]): 70
Plant response rating, Corn (corn; [9]): 90
Plant response rating, Oat, Wild (oat, wild; [10]): 0
Plant response rating, Oat, Wild (oat, wild; [11]): 0
Plant response rating, Oat, Wild (oat, wild; [12]): 0
Plant response rating, Oat, Wild (oat, wild; [13]): 0
Plant response rating, Crabgrass, Large (crabgrass, large; [1]): 0
Plant response rating, Crabgrass, Large (crabgrass, large; [2]): 40
Plant response rating, Crabgrass, Large (crabgrass, large; [3]): 70
Plant response rating, Crabgrass, Large (crabgrass, large; [4]): 80
Crabgrass, Large plant response rating (crabgrass, large; [7]): 95
Crabgrass, Large plant response rating (crabgrass, large; [5]): 98
Plant response rating, Crabgrass, Large (crabgrass, large; [18]): 98
Plant response rating (scale of 0 to 100), Crabgrass, Large (crabgrass, large; Preemergence, 250 g ai/ha): 100
Plant response rating, Foxtail, Giant (giant foxtail; [14]): 90
Plant response rating, Foxtail, Giant (giant foxtail; [15]): 90
Plant response rating, Foxtail, Giant (giant foxtail; [16]): 90
Foxtail, Giant plant response rating (giant foxtail; [17]): 90
Plant response rating, Ducksalad (ducksalad): 100
